Read-outs that look alike come from different tables or passages of the source.
Assays:
USP30 = USP30 (Homo sapiens (Human), UniProt Q70CQ3); experiment: Dundee MALDI-TOF mass spectrometry assay (IC50); assay type: biochemical; conditions: USP30 25 ng/μl, K48-linked diubiquitin 5.6 μM, avg, read-out: Dundee IC50 μM (avg in vitro MS assay)
Method in brief: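 USP30 (25 ng/μl) preincubated with compound 5 min at RT in Tris/BSA/DTT buffer, then K48-linked diubiquitin (5.6 μM) added for 45 min at RT. Stopped with 2% TFA; cleavage quantified by MALDI-TOF mass spectrometry to give IC50.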

[1] = biological target: recombinant USP30 (amino acids 57-517 of the human sequence) (Homo sapiens (Human), UniProt Q70CQ3); experiment: In vitro USP30 biochemical assay (Ubiquitin-Rhodamine)
[2] = USP30 IC50 μM (avg), Ubiquitin-Rhodamine substrate 25 nM, 1.5 nM recombinant USP30
[3] = read-out: USP30 IC50 μM (avg), Ubiquitin-Rhodamine substrate 25 nM, 1.5 nM recombinant USP30

Chain of USP30 (Q70CQ3 whole entry): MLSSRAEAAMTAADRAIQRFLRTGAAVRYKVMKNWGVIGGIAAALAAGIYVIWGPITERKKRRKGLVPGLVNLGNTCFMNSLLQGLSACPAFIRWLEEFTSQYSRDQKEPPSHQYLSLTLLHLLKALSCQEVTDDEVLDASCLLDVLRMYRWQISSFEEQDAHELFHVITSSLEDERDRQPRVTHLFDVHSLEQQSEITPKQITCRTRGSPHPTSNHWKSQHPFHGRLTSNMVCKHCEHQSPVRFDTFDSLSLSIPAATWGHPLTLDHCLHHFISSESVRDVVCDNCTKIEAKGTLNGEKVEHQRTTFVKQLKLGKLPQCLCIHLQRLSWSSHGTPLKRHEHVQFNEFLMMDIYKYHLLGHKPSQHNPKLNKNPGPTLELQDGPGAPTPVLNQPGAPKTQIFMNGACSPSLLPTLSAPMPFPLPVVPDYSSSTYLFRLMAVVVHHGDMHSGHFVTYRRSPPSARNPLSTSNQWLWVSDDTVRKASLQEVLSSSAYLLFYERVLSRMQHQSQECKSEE
Chain of recombinant USP30 (amino acids 57-517 of the human sequence) (Q70CQ3 57-517): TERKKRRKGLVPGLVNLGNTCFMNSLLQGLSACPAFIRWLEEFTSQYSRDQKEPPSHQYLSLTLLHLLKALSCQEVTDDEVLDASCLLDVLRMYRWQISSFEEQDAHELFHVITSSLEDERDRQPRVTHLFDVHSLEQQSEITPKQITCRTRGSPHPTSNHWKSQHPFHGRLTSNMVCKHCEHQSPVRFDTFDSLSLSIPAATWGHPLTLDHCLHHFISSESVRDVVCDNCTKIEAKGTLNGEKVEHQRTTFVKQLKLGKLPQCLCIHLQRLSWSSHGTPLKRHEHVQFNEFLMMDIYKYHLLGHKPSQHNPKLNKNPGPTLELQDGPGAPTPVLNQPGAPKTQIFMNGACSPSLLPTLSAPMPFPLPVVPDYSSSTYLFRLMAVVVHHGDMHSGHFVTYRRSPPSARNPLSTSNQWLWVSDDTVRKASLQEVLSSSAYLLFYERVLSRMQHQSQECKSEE

Row | Compound | IC50 (USP30) [µM] | IC50 [1, 2] [µM] | IC50 [1, 3] [µM]
1 | CCNS(=O)(=O)c1ccc(NC(=O)[C@H](Cc2cccnc2)N(C)C(=O)c2ccc(F)cc2)cc1 [Compound I-90, (S)-N-(1-(4-(N-ethylsulfamoyl)phenylamino)-1-oxo-3-(pyridin-3-yl)propan-2-yl)-4-fluoro-N-methylbenzamide] | > 10 | 1 to 10 | –
2 | COCCNS(=O)(=O)c1ccc(NC(=O)[C@H](Cc2ccccc2)NC(=O)c2ccc(F)cc2)cc1 [Compound I-132, (S)-4-fluoro-N-(1-(4-(N-(2-methoxyethyl)sulfamoyl)phenylamino)-1-oxo-3-phenylpropan-2-yl)benzamide] | < 0.05 | 0.05 to 1 | –
3 | O=C(N[C@@H](Cc1ccccc1)C(=O)Nc1ccc(S(=O)(=O)NC23CC(C2)C3)cc1)c1ccccn1 [Compound I-76, (S)-N-(1-(4-(N-bicyclo[1.1.1]pentan-1-ylsulfamoyl)phenylamino)-1-oxo-3-phenylpropan-2-yl)picolinamide] | 0.05 to 1 | 1 to 10 | –
4 | CN(C(=O)c1ccc(F)cc1)[C@@H](Cc1cccnc1)C(=O)Nc1ccc(S(=O)(=O)NC2COC2)cc1 [Compound I-89, (S)-4-fluoro-N-methyl-N-(1-(4-(N-oxetan-3-ylsulfamoyl)phenylamino)-1-oxo-3-(pyridin-3-yl)propan-2-yl)benzamide] | 1 to 10 | – | > 10
5 | O=C(N[C@@H](Cc1ccccc1)C(=O)Nc1ccc(S(=O)(=O)NCCO)cc1)c1ccc(F)cc1 [Compound I-138, (S)-4-fluoro-N-(1-(4-(N-(2-hydroxyethyl)sulfamoyl)phenylamino)-1-oxo-3-phenylpropan-2-yl)benzamide] | < 0.05 | 0.05 to 1 | –
6 | CC(C)(NS(=O)(=O)c1ccc(NC(=O)[C@H](Cc2ccccc2)NC(=O)c2ccc(F)cc2)cc1)C(F)(F)F [Compound I-25, (S)-4-fluoro-N-(1-oxo-3-phenyl-1-(4-(N-(1,1,1-trifluoro-2-methylpropan-2-yl)sulfamoyl)phenylamino)propan-2-yl)benzamide] | < 0.05 | – | < 0.05
7 | CNS(=O)(=O)c1ccc(NC(=O)[C@H](Cc2ccccc2)NC(=O)c2ccc(F)cc2)cc1 [Compound I-30, (S)-4-fluoro-N-(1-(4-(N-methylsulfamoyl)phenylamino)-1-oxo-3-phenylpropan-2-yl)benzamide] | 0.05 to 1 | 0.05 to 1 | –
8 | CC(C)(C)NS(=O)(=O)c1ccc(NC(=O)[C@H](Cc2ccccc2)NC(=O)c2ccc(F)cc2)cc1F [Compound I-156, (S)-N-(1-(4-(N-tert-butylsulfamoyl)-3-fluorophenylamino)-1-oxo-3-phenylpropan-2-yl)-4-fluorobenzamide] | < 0.05 | – | < 0.05
9 | CCNS(=O)(=O)c1ccc(NC(=O)[C@H](Cc2ccccc2)NC(=O)c2ccc(F)cc2)cn1 [Compound I-105, (S)-N-(1-(6-(N-ethylsulfamoyl)pyridin-3-ylamino)-1-oxo-3-phenylpropan-2-yl)-4-fluorobenzamide] | 0.05 to 1 | 0.05 to 1 | –
10 | CC(C)(C)NS(=O)(=O)c1ccc(NC(=O)[C@H](Cc2ccccc2)NC(=O)c2ccc(F)cn2)cc1 [Compound I-85, (S)-N-(1-(4-(N-tert-butylsulfamoyl)phenylamino)-1-oxo-3-phenylpropan-2-yl)-5-fluoropicolinamide] | 0.05 to 1 | – | < 0.05
11 | COCCNS(=O)(=O)c1ccc(NC(=O)[C@H](Cc2ccccc2)NC(=O)c2ccc(F)cc2)cc1OC [Compound I-151, (S)-4-fluoro-N-(1-(3-methoxy-4-(N-(2-methoxyethyl)sulfamoyl)phenylamino)-1-oxo-3-phenylpropan-2-yl)benzamide] | < 0.05 | 0.05 to 1 | –
12 | CC(C)(C)OCCNS(=O)(=O)c1ccc(NC(=O)[C@H](Cc2ccccc2)NC(=O)c2ccc(F)cc2)cn1 [Compound I-114, (S)-N-(1-(6-(N-(2-tert-butoxyethyl)sulfamoyl)pyridin-3-ylamino)-1-oxo-3-phenylpropan-2-yl)-4-fluorobenzamide] | 0.05 to 1 | 0.05 to 1 | –
13 | O=C(N[C@@H](Cc1ccccc1)C(=O)Nc1ccc(S(=O)(=O)NC2COC2)cn1)c1ccc(F)cc1 [Compound I-119, (S)-4-fluoro-N-(1-(5-(N-oxetan-3-ylsulfamoyl)pyridin-2-ylamino)-1-oxo-3-phenylpropan-2-yl)benzamide] | 0.05 to 1 | 0.05 to 1 | –
14 | CC(C)(C)NS(=O)(=O)c1ccc(NC(=O)[C@H](Cc2ccccc2)NC(=O)c2cccnc2)cc1 [Compound I-87, (S)-N-(1-(4-(N-tert-butylsulfamoyl)phenylamino)-1-oxo-3-phenylpropan-2-yl)nicotinamide] | 0.05 to 1 | 0.05 to 1 | –
15 | C[C@H](NS(=O)(=O)c1ccc(NC(=O)[C@H](Cc2ccccc2)NC(=O)c2ccc(F)cc2)cc1)C(F)(F)F [Compound I-13, 4-fluoro-N-((S)-1-oxo-3-phenyl-1-(4-(N-((S)-1,1,1-trifluoropropan-2-yl)sulfamoyl)phenylamino)propan-2-yl)benzamide] | < 0.05 | 0.05 to 1 | –
16 | O=C(N[C@@H](Cc1ccccc1)C(=O)Nc1ccc(S(=O)(=O)NC23CC(C2)C3)cc1)c1cccnc1 [Compound I-79, (S)-N-(1-(4-(N-bicyclo[1.1.1]pentan-1-ylsulfamoyl)phenylamino)-1-oxo-3-phenylpropan-2-yl)nicotinamide] | 0.05 to 1 | 1 to 10 | –
17 | CN(C(=O)c1ccc(F)cc1)[C@@H](Cc1cccnc1)C(=O)Nc1ccc(S(=O)(=O)NC23CC(C2)C3)cc1 [Compound I-92, (S)-N-(1-(4-(N-bicyclo[1.1.1]pentan-1-ylsulfamoyl)phenylamino)-1-oxo-3-(pyridin-3-yl)propan-2-yl)-4-fluoro-N-methylbenzamide] | 1 to 10 | 1 to 10 | –
18 | CC(C)(CF)NS(=O)(=O)c1ccc(NC(=O)[C@H](Cc2ccccc2)NC(=O)c2ccc(F)cc2)cc1 [Compound I-10, (S)-4-Fluoro-N-(1-(4-(N-(1-fluoro-2-methylpropan-2-yl)sulfamoyl)phenylamino)-1-oxo-3-phenylpropan-2-yl)benzamide] | < 0.05 | – | < 0.05
19 | CN(C(=O)c1ccc(F)cc1)[C@@H](Cc1ccccc1)C(=O)Nc1ccc(S(=O)(=O)NC23CC(C2)C3)cc1 [Compound I-72, (S)-N-(1-(4-(N-bicyclo[1.1.1]pentan-1-ylsulfamoyl)phenylamino)-1-oxo-3-phenylpropan-2-yl)-4-fluoro-N-methylbenzamide] | 1 to 10 | 1 to 10 | –
20 | O=C(N[C@@H](Cc1ccccc1)C(=O)Nc1ccc(S(=O)(=O)NC2CCC2)cc1)c1cccnc1 [Compound I-81, (S)-N-(1-(4-(N-cyclobutylsulfamoyl)phenylamino)-1-oxo-3-phenylpropan-2-yl)nicotinamide] | 0.05 to 1 | 0.05 to 1 | –
21 | CN1CCC(NS(=O)(=O)c2ccc(NC(=O)[C@H](Cc3ccccc3)NC(=O)c3ccc(F)cc3)cc2)CC1 [Compound I-33, (S)-4-fluoro-N-(1-(4-(N-(1-methylpiperidin-4-yl)sulfamoyl)phenylamino)-1-oxo-3-phenylpropan-2-yl)benzamide] | 0.05 to 1 | 0.05 to 1 | –
22 | CCNS(=O)(=O)c1cccc2c(NC(=O)[C@H](Cc3ccccc3)NC(=O)C3CCCCC3)cccc12 [Compound I-124, (S)-N-(1-(5-(N-ethylsulfamoyl)naphthalen-1-ylamino)-1-oxo-3-phenylpropan-2-yl)cyclohexanecarboxamide] | < 0.05 | 0.05 to 1 | –

From patent publication US11845724B2, “USP30 inhibitors and uses thereof” (Vincere Biosciences, Inc., priority 2019, dated 2023)
